Drawing on patent publication US9926281B2 (priority 2014, dated 2018), this text covers IC50 for 25 molecules.

One may read the IC50 as the concentration that gives 50% inhibition.

One assay addresses rnADAMTS-5 (1-564-6H) (Rattus norvegicus, UniProt Q6TY19). The settings on record: read-out: Rat ADAMTS-5 potency IC50.
Assay [1] concerns the target T1, human ADAMTS-5 (Homo sapiens (Human), UniProt Q9UNA0). Particulars: read-out: hADAMTS-5 potency IC50.
A further assay addresses human TACE (Homo sapiens (Human), UniProt P78536). Particulars: read-out: TACE potency IC50.
The next assay has as its target human MMP13 (Homo sapiens (Human), UniProt P45452). The settings on record: read-out: hMMP-13 potency IC50.
Assay [2] concerns the target T1, human ADAMTS-5. Particulars: read-out: hADAMTS-5 potency IC50. The source holds these as a separate data set.
Experimental: Finally, the fluorescence is read on the Envision (Perkin Elmer) after an incubation of 90 min at 37° C.

Read-outs that look alike come from different tables or passages of the source.

Chain of human TACE (P78536 whole entry, looked up, change not shown): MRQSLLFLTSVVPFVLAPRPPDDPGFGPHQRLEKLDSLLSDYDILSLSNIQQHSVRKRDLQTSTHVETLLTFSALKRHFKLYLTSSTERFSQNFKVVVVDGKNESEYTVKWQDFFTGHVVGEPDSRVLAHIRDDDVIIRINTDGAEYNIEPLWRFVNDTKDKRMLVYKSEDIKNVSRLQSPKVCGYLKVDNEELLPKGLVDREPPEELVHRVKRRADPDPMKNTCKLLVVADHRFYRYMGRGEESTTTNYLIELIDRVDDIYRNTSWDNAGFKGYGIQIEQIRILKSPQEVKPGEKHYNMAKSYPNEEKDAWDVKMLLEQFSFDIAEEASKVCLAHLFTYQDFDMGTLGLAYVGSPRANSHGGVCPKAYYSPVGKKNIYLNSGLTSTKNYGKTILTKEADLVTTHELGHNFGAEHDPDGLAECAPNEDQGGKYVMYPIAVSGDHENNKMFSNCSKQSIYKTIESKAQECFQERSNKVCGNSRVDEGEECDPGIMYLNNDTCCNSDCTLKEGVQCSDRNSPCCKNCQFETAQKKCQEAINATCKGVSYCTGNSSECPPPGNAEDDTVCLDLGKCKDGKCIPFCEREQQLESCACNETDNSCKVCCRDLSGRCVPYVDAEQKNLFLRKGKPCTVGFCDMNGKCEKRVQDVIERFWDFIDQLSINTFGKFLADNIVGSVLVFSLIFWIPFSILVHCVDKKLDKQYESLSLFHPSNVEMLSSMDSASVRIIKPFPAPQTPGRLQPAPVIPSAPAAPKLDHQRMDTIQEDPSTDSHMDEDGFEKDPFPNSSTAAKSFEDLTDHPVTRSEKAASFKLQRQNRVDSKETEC
T1 sequence (Q9UNA0 262-930): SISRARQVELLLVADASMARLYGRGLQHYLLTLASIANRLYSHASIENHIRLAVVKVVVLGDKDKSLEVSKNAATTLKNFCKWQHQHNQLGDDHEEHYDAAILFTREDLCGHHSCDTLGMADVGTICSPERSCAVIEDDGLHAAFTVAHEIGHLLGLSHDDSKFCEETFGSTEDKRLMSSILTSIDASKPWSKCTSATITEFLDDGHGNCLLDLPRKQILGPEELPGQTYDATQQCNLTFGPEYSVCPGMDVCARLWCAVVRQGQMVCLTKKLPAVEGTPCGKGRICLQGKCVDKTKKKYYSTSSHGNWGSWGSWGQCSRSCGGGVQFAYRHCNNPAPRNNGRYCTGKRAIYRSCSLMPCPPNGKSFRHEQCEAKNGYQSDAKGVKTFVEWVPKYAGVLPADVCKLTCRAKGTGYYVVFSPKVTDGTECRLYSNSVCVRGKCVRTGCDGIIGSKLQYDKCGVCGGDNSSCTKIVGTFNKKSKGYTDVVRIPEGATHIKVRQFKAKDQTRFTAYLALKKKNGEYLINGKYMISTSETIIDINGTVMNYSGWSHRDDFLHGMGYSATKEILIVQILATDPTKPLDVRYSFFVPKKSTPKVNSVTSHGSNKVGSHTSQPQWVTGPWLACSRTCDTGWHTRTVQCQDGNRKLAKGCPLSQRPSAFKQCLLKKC
Experimental for human MMP13: Human MMP13 is preactivated by incubated the enzyme in the same buffer complemented with 1 mM freshly prepared p-Aminophenylmercuric acetate (AMPA) for 1 hour at 37° C.

Turning to `O=C1NC(=O)C(CCC(=O)N2CCN(c3ccc(F)c(Cl)c3)CC2)(c2cccnc2)N1` (centres unmarked) [compound 91, 5-[3-[4-(3-chloro-4-fluoro-phenyl)piperazin-1-yl]-3-oxo-propyl]-5-(3-pyridyl)imidazolidine-2,4-dione], the IC50 was 69 nM on rnADAMTS-5 (1-564-6H), 95 nM at human ADAMTS-5 [1], over 4 µM on human TACE and 1.68 µM at human MMP13.
In the same order, the values of `Cc1c(F)cccc1N1CCN(C(=O)CCC2(c3ccccn3)NC(=O)NC2=O)CC1` (centres unmarked) [compound 100, 5-[3-[4-(3-fluoro-2-methyl-phenyl)piperazin-1-yl]-3-oxo-propyl]-5-(2-pyridyl)imidazolidine-2,4-dione] are 163 nM, 185 nM, over 4 µM and over 20 µM.
For `O=C1NC(=O)C(CCC(=O)N2CCN(c3ccc(F)c(Cl)c3)CC2)(C2CC2)N1` (centres unmarked) [compound 114, 5-[3-[4-(3-chloro-4-fluoro-phenyl)piperazin-1-yl]-3-oxo-propyl]-5-cyclopropyl-imidazolidine-2,4-dione], the IC50 is 62 nM at rnADAMTS-5 (1-564-6H), 67 nM at human ADAMTS-5 [1], over 20 µM at human TACE and 2.58 µM on human MMP13.
In the case of `Cc1ccc(C)c(N2CCN(C(=O)CCC3(c4cccnc4)NC(=O)NC3=O)CC2)c1` (centres unmarked) [compound 88, 5-[3-[4-(2,5-dimethylphenyl)piperazin-1-yl]-3-oxo-propyl]-5-(3-pyridyl)imidazolidine-2,4-dione], the IC50 on rnADAMTS-5 (1-564-6H) is 119 nM; on human ADAMTS-5 [1], 119 nM; on human TACE, 0.211 µM; on human MMP13, over 20 µM.
On to `Cc1ccc(C2(CCC(=O)N3CCN(c4cccc(Cl)c4)CC3)NC(=O)NC2=O)cc1` (centres unmarked) [compound 76, 5-[3-[4-(3-chlorophenyl)piperazin-1-yl]-3-oxo-propyl]-5-(p-toy)imidazolidine-2,4-dione], for which the IC50 at rnADAMTS-5 (1-564-6H) came to 102 nM; on human ADAMTS-5 [1] it was 91 nM; on human TACE, 1.78 µM; on human MMP13 it was 2.06 µM.
Turning to `CC1(CCC(=O)N2CCN(c3ccccc3Cl)CC2)NC(=O)NC1=O` (centres unmarked) [compound 19, 5-[3-[4-(2-chlorophenyl)piperazin-1-yl]-3-oxo-propyl]-5-methyl-imidazolidine-2,4-dione], the figures for the IC50 on rnADAMTS-5 (1-564-6H), at human ADAMTS-5 [1] and at human ADAMTS-5 [2] were over 4000 nM, over 4000 nM and over 4 µM, respectively.
`CC1CN(C(=O)CCC2(C3CC3)NC(=O)NC2=O)CCN1c1ccccc1` (centres unmarked) [compound 106, 5-cyclopropyl-5-[3-(3-methyl-4-phenyl-piperazin-1-yl)-3-oxo-propyl]imidazolidine-2,4-dione]: the IC50 was 222 nM at rnADAMTS-5 (1-564-6H), 233 nM on human ADAMTS-5 [1], over 20 µM at human TACE and over 20 µM on human MMP13.
Turning to `Cc1cc(Cl)c(F)cc1N1CCN(C(=O)CCC2(C)NC(=O)NC2=O)CC1` (centres unmarked) [compound 93, 5-[3-[4-(4-chloro-5-fluoro-2-methyl-phenyl)piperazin-1-yl]-3-oxo-propyl]-5-methyl-imidazolidine-2,4-dione], the IC50 was over 4000 nM on rnADAMTS-5 (1-564-6H), over 4080 nM on human ADAMTS-5 [1], over 3.53 µM at human TACE and over 20 µM on human MMP13.
In the same order, the values of `O=C1NC(=O)C(CCC(=O)N2CCN(c3ccccc3)CC2)(C2CC2)N1` (centres unmarked) [compound 138, 5-cyclopropyl-5-[3-oxo-3-(4-phenylpiperazin-1-yl)propyl]imidazolidine-2,4-dione] are 107 nM, 101 nM, over 20 µM and over 4 µM.
In the same order, the values of `O=C1NC(=O)C(CCC(=O)N2CCN(c3ccc(F)c(F)c3)CC2)(C2CC2)N1` (centres unmarked) [compound 113, 5-cyclopropyl-5-[3-[4-(3,4-difluorophenyl)piperazin-1-yl]-3-oxo-propyl]imidazolidine-2,4-dione] are 91 nM, 104 nM, over 20 µM and 3.62 µM.
On the same counts, the results for `CC1CN(C(=O)CCC2(c3cccnc3)NC(=O)NC2=O)CCN1c1ccccc1` (centres unmarked) [compound 105, 5-[3-(3-methyl-4-phenyl-piperazin-1-yl)-3-oxo-propyl]-5-(3-pyridyl)imidazolidine-2,4-dione] are 162 nM, 226 nM, over 20 µM and over 20 µM.
For the molecule `Cc1cc(F)c(F)cc1N1CCN(C(=O)CCC2(C)NC(=O)NC2=O)CC1` (centres unmarked) [compound 94, 5-[3-[4-(4,5-difluoro-2-methyl-phenyl)piperazin-1-yl]-3-oxo-propyl]-5-methyl-imidazolidine-2,4-dione], the IC50 on rnADAMTS-5 (1-564-6H) is 3020 nM; on human ADAMTS-5 [1] it was 2130 nM; on human TACE it was over 4 µM; at human MMP13, over 20 µM.
Regarding `Cc1ccc(Cl)cc1N1CCN(C(=O)CCC2(c3ccccn3)NC(=O)NC2=O)CC1` (centres unmarked) [compound 65, 5-[3-[4-(5-chloro-2-methyl-phenyl)piperazin-1-yl]-3-oxo-propyl]-5-(2-pyridyl)imidazolidine-2,4-dione], the IC50 was 65 nM on rnADAMTS-5 (1-564-6H), 50 nM at human ADAMTS-5 [1], 0.056 µM on human TACE and over 20 µM at human MMP13.
In the same order, the values of `O=C1NC(=O)C(CCC(=O)N2CCN(c3cc(Cl)cc(Cl)c3)CC2)(c2cccnc2)N1` (centres unmarked) [compound 111, 5-[3-[4-(3,5-dichlorophenyl)piperazin-1-yl]-3-oxo-propyl]-5-(3-pyridyl)imidazolidine-2,4-dione] are 46 nM, 42 nM, 0.963 µM and over 20 µM.
In the case of `Cc1ccc(F)cc1N1CCN(C(=O)CCC2(c3cccnc3)NC(=O)NC2=O)CC1` (centres unmarked) [compound 92, 5-[3-[4-(5-fluoro-2-methyl-phenyl)piperazin-1-yl]-3-oxo-propyl]-5-(3-pyridyl)imidazolidine-2,4-dione], the IC50 was 64 nM on rnADAMTS-5 (1-564-6H), 63 nM on human ADAMTS-5 [1], 1.05 µM on human TACE and over 20 µM at human MMP13.
Consider `CC1(CCC(=O)N2CCN(c3cncc(Cl)c3)CC2)NC(=O)NC1=O` (centres unmarked) [compound 85, 5-[3-[4-(5-chloro-3-pyridyl)piperazin-1-yl]-3-oxo-propyl]-5-methyl-imidazolidine-2,4-dione], for which the IC50 was 1110 nM on rnADAMTS-5 (1-564-6H), 1270 nM at human ADAMTS-5 [1], over 4 µM at human TACE and over 20 µM on human MMP13.
For the molecule `CC1(CCC(=O)N2CCN(c3ccc(F)cc3)CC2)NC(=O)NC1=O` (centres unmarked) [compound 66, 5-[3-[4-(4-fluorophenyl)piperazin-1-yl]-3-oxo-propyl]-5-methyl-imidazolidine-2,4-dione], the IC50 at rnADAMTS-5 (1-564-6H) was 1370 nM; on human ADAMTS-5 [1], 1310 nM; on human TACE it was over 20 µM; at human MMP13 it was over 20 µM.
Consider `O=C1NC(=O)C(CCC(=O)N2CCN(c3ccc(F)c(Cl)c3)CC2)(c2ccccn2)N1` (centres unmarked) [compound 96, 5-[3-[4-(3-chloro-4-fluoro-phenyl)piperazin-1-yl]-3-oxo-propyl]-5-(2-pyridyl)imidazolidine-2,4-dione], for which the IC50 amounted to 57 nM on rnADAMTS-5 (1-564-6H), 49 nM at human ADAMTS-5 [1], 3.59 µM on human TACE and 1.06 µM at human MMP13.
Regarding `O=C1NC(=O)C(CCC(=O)N2CCN(c3cccc(Cl)c3)CC2)(C2CCCC2)N1` (centres unmarked) [compound 109, 5-[3-[4-(3-chlorophenyl)piperazin-1-yl]-3-oxo-propyl]-5-cyclopentyl-imidazolidine-2,4-dione], the IC50 on rnADAMTS-5 (1-564-6H) is 182 nM; on human ADAMTS-5 [1], 261 nM; on human TACE, 5.26 µM; on human MMP13, over 4 µM.
In the same order, the values of `Cc1ccccc1N1CCN(C(=O)CCC2(c3cccnc3)NC(=O)NC2=O)CC1` (centres unmarked) [compound 64, 5-[3-[4-(o-tolyl)piperazin-1-yl]-3-oxo-propyl]-5-(3-pyridyl)imidazolidine-2,4-dine] are 165 nM, 125 nM, 3.14 µM and over 20 µM.
As to `O=C1NC(=O)C(CCC(=O)N2CCN(c3cccc(Cl)c3)CC2)(c2ccc(Cl)cc2)N1` (centres unmarked) [compound 74, 5-(4-chlorophenyl)-5-[3-[4-(3-chlorophenyl)piperazin-1-yl]-3-oxo-propyl]imidazolidine-2,4-dione], the IC50 on rnADAMTS-5 (1-564-6H) is 106 nM; at human ADAMTS-5 [1], 89 nM; at human MMP13, 2.66 µM.
`Cc1ccc(Cl)cc1N1CCN(C(=O)CCC2(c3cccnc3)NC(=O)NC2=O)CC1` (centres unmarked) [compound 46, 5-[3-[4-(5-chloro-2-methyl-phenyl)piperazin-1-yl]-3-oxo-propyl]-5-(3-pyridyl)imidazolidine-2,4-dione]: the IC50 at rnADAMTS-5 (1-564-6H) worked out at 42 nM; on human ADAMTS-5 [1], 35 nM; on human TACE it was 0.137 µM.
In the case of `Cc1c(F)cccc1N1CCN(C(=O)CCC2(c3cccnc3)NC(=O)NC2=O)CC1` (centres unmarked) [compound 97, 5-[3-[4-(3-fluoro-2-methyl-phenyl)piperazin-1-yl]-3-oxo-propyl]-5-(3-pyridyl)imidazolidine-2,4-dione], the 50% inhibitory concentration (IC50) at rnADAMTS-5 (1-564-6H) was 148 nM; on human ADAMTS-5 [1] it was 168 nM; on human TACE, over 4 µM; at human MMP13 it was over 20 µM.
Take `Cc1ccc(Cl)cc1N1CCN(C(=O)CCC2(c3ccccc3)NC(=O)NC2=O)CC1` (centres unmarked) [compound 24, 5-[3-[4-(5-chloro-2-methyl-phenyl)piperazin-1-yl]-3-oxo-propyl]-5-phenyl-imidazolidine-2,4-dione]: the IC50 at rnADAMTS-5 (1-564-6H) worked out at 132 nM; at human ADAMTS-5 [1], 93 nM; on human TACE, 0.298 µM.
On to `Cc1ccc(Cl)cc1N1CCN(C(=O)CCC2(C(C)C)NC(=O)NC2=O)CC1` (centres unmarked) [compound 33, 5-[3-[4-(5-chloro-2-methyl-phenyl)piperazin-1-yl]-3-oxo-propyl]-5-isopropyl-imidazolidine-2,4-dione], for which the IC50 was 178 nM on rnADAMTS-5 (1-564-6H), 134 nM on human ADAMTS-5 [1] and 0.429 µM at human TACE.
